According to patent US20070054348A1, “Methods of screening bifunctional molecules for modulated pharmacokinetic properties” (priority 2005, published 2007):
Each block holds one compound with its values, some of them ahead of it.

Experiments:
CYP3A4 = CYP3A4 (Homo sapiens, UniProt P08684)
Description: Both the curcumin-FK506 and TZDM-SLF bifunctional compounds include a ligand to the pertidyl-prolyl isomerase FKBP. Therefore, FKBP12 was used in the assay as the PMP. A control was also performed with FK506 in the presence and absence of FKBP12.
The coding sequence of human FKBP12 was subcloned into a pGEX2t vector. Bacteria transformed with this vector produce a fusion protein between FKBP12 and glutathione S-transferase (GST). FKBP12 is purified by standard methods and the GST tag enzymatically removed. Pure FKBP was flash-frozen, and stored at −80° C. at 10-100 micromolar in HEPES or phosphate buffer pH 7.0.
The CYP3A4 compound and the green substrate VIVID® DBOMF (Invitrogen) were used in the assay with the recombinant human FKBP12 (rhFKBP12) and one of the bifunctional compounds. […] Increasing concentrations of the bifunctional compound, curcumin-FK506, were added to this system, either in the presence (open symbols) or absence (closed symbols) of rhFKBP12 at one micromolar.
However, it has never been tested in an in vitro screen. Therefore, rhFKBP12 and FK506 were added to the VIVID assay. The open symbols are FK506+FKBP and the filled symbols are FK506 alone.

[1] = stated as known; cited from earlier work
COS-1 cells = assay: Fluorescence microscopy of cellular distribution in cultured COS-1 cells; assay type: cell-based; conditions: FIG. 3
Description: Cellular and tissue distribution of a bifunctional molecule consisting of a FKBP-binding group was also assessed. Such re-distribution is due to changes in the physicochemical characteristics of the new molecule and also is driven by specific, high-affinity interactions with FKBP. For example, the distribution of TZDM and TZDM-SLF were studied in cultured COS-1 cells (see FIG. 3). The intrinsic fluorescence of TZDM was used was a convenient handle for following drug distribution. […] Thus, sequestering FKBP-binding drugs both reduces accessibility to P450 enzymes and also alters the distribution of the bifunctional compounds.

[2] = target: T1, cytochrome p450 3A4 (CYP3A4) (Homo sapiens, UniProt P08684); assay: Cytochrome P450 susceptibility assay using whole cells (FKBP-expressing CHO cells in the VIVID assay); assay type: in vitro ADME; conditions: FKBP-expressing Chinese hamster ovary cells (CHO) added, FIG. 4
T1 construct: purchased Invitrogen
T1 sequence (P08684 whole entry): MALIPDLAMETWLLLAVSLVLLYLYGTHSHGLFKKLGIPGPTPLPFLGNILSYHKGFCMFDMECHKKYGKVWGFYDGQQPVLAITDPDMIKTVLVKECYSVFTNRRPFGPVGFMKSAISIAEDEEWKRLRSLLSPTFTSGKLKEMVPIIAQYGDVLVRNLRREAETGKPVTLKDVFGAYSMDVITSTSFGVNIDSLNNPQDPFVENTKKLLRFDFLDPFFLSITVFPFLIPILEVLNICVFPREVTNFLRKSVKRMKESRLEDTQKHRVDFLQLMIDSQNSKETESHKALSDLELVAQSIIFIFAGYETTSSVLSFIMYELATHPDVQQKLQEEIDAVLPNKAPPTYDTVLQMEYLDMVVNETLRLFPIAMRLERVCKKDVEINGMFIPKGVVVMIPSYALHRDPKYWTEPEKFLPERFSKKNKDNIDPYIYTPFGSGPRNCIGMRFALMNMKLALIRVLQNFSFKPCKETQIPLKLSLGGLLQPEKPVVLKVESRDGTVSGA
Description: In addition to using rhFKBP12 or other recombinant proteins, whole cells were also tested using the cytochrome P450 assay platform. […] Unconjugated curcumin (triangle) was used as a negative control.

CYP3A4, sequence (P08684 whole entry): as above

Structure (SMILES): C=CC[C@@H]1/C=C(\C)C[C@H](C)C[C@H](OC)[C@H]2O[C@@](O)(C(=O)C(=O)N3CCCC[C@H]3C(=O)O[C@H](/C(C)=C/[C@@H]3CC[C@@H](O)[C@H](OC)C3)[C@H](C)[C@@H](O)CC1=O)[C@H](C)C[C@@H]2OC [FK506]
protection from metabolism by CYP on binding the protein partner FKBP (CYP3A4; human): protected from P450 metabolism by the presence of the protein partner | protection from degradation in whole animals [1]: known to be protected from degradation in whole animals

cellular distribution by intrinsic fluorescence (COS-1 cells): resides in membranes
Structure (SMILES): CN(C)c1ccc(-c2nc3ccc(I)cc3s2)cc1 [TZDM]

fluorescence of the reaction in the presence of rhFKBP12 compared to the reaction lacking rhFKBP12 (CYP3A4): higher
Structure (SMILES): COc1cc(/C=C/C(=O)C(C(=O)/C=C/c2ccc(O)c(OC)c2)c2ccc(NC(=O)OCC[C@@H]3/C=C(\C)C[C@H](C)C[C@H](OC)[C@H]4O[C@@](O)(C(=O)C(=O)N5CCCC[C@H]5C(=O)OC(/C(C)=C/[C@@H]5CC[C@@H](O)[C@H](OC)C5)[C@H](C)C(O)CC3=O)[C@H](C)C[C@@H]4OC)cc2)ccc1O (stereo partly drawn) [curcumin-FK506]
protection from P450 metabolism by addition of FKBP-expressing cells [2]: protected by addition of the FKBP-expressing cells

protection from P450 metabolism by addition of FKBP-expressing cells [2]: less protected
Structure (SMILES): COc1cc(/C=C/C(=O)CC(=O)/C=C/c2ccc(O)c(OC)c2)ccc1O [curcumin]
